Measurements taken from US20250313553A1, “ANNULATED 2-AMINO-3-CYANO THIOPHENES AND DERIVATIVES FOR THE TREATMENT OF CANCER” (Boehringer Ingelheim Int'l GmbH Corp., priority 2021, published 2025).

Experiments:
[1] = Metabolic (microsomal) stability assay, HLM; format: in vitro ADME; details: human liver microsomes, 1 μM, predicted clearance as percent of liver blood flow
Protocol: The metabolic degradation of the test compound is assayed at 37° C. with pooled liver microsomes (mouse (MLM), rat (RLM) or human (HLM)). The final incubation volume of 48 μL per time point contains TRIS buffer (pH 7.5; 0.1 M), magnesium chloride (6.5 mM), microsomal protein (0.5 mg/mL for mouse/rat, 1 mg/mL for human specimens) and the test compound at a final concentration of 1 μM. Following a short preincubation period at 37° C., the reactions are initiated by addition of 12 μL beta-nicotinamide adenine dinucleotide phosphate, reduced form (NADPH, 10 mM) and terminated by transferring an aliquot into solvent after different time points (0, 5, 15, 30, 60 min). Additionally, the NADPH-independent degradation is monitored in incubations without NADPH, terminated at the last time point by addition of acetonitrile. The quenched incubations are pelleted by centrifugation (4,000 rpm, 15 min). An aliquot of the supernatant is assayed by LC-MS/MS to quantify the concentration of parent compound in the individual samples.
In vitro intrinsic clearance (CLint, in vitro) is calculated from the time course of the disappearance of the test drug during the microsomal incubation. Each plot is fitted to the first-order elimination rate constant as C(t)=C0*exp(−ke*t), where C(t) and C0 are the concentration of unchanged test drug at incubation time t and that at preincubation and ke is the disappearance rate constant of the unchanged drug. Subsequently, CLint, in vitro (μL min^−1·amount protein) values are converted to predicted CLint, in vivo (mL min^−1·kg^−1) from incubation parameters according to the equation CLint, in vivo=CLint, in vitro×(incubation volume (ml)/amount protein (mg))×(amount protein (mg)/g liver tissue)×(liver weight/body wt.). For better across species comparison the predicted clearance is expressed as percent of the liver blood flow [% QH](mL min^−1·kg^−1) in the individual species. In general, high stability (corresponding to low % QH) of the compounds across species is desired.

KRAS G12V Ba/F3 cells = KRAS G12V Ba/F3 cells (Homo sapiens, UniProt P01116, G12V, cells depend on it); assay: Ba/F3 proliferation assay, KRAS G12V; format: cell-based; details: 72 h, AlamarBlue, read-out: KRAS G12V Ba/F3 IC50
Protocol: (§1) To generate KRASG12-dependent Ba/F3 models, Ba/F3 cells are transduced with retroviruses containing vectors that harbor KRASG12 isoforms. Platinum-E cells (Cell Biolabs) are used for retrovirus packaging. Retrovirus is added to Ba/F3 cells. To ensure infection, 4 μg/mL polybrene is added and cells are spinfected. […] Cells with an infection efficiency of 10% to 20% are further cultivated and puromycin selection with 1 μg/mL is initiated. As a control, parental Ba/F3 cells are used to show selection status. Selection is considered successful when parental Ba/F3 cells cultures died. To evaluate the transforming potential of KRASG12 mutations, the growth medium is no longer supplemented with IL-3. Ba/F3 cells harboring the empty vector are used as a control. Approximately ten days before conducting the experiments, puromycin is left out.
(§2) All treatments are performed in technical duplicates. […] AlamarBlue™ (ThermoFisher), a viability stain, is added and fluorescence measured in the PerkinElmer Envision HTS Multilabel Reader. The raw data are imported into and analyzed with the Boehringer Ingelheim proprietary software MegaLab (curve fitting based on the program PRISM, GraphPad Inc.).

KRAS (G12C) and SOS1 = molecular target: T1, KRAS (G12C) and SOS1 (Homo sapiens, UniProt P01116, C118S/C51S/C80L/G12C); assay: KRAS::SOS1 AlphaScreen binding assay, KRAS G12C
T1 construct: KRAS (G12C) 1-169, N-terminal 6His-tag for purification; 6His (N, cleaved yes)
Protocol: Low IC50 values in this assay setting are indicative of strong inhibition of protein-protein interaction between SOS1 and KRAS:
These assays measure the inhibitory effect of compounds on KRAS mutant protein-protein interactions using the Alpha Screen technology by Perkin Elmer.
For the chosen highest assay concentration of 100 μM, 150 nL of compound solution are transferred from a 10 mM DMSO compound stock solution. A series of eleven fivefold dilutions per compound are transferred to the assay plate, compound dilutions are tested in duplicates. DMSO are added as backfill to a total volume of 150 nL.
The assays run on a fully automated robotic system in a darkened room below 100 Lux. To 150 nl of compound dilution 10 μl of a mix including KRAS mutant protein, SOS1 (final assay concentrations see above) and GDP nucleotide (Sigma G7127; final assay concentration 10 μM) in assay buffer (1×PBS, 0.1% BSA, 0.05% Tween 20) are added into columns 1-24. After 30 minutes incubation time 5 μl of Alpha Screen bead mix in assay buffer are added into columns 1-23.
Plates are kept at room temperature in a darkened incubator. After an additional 60 minutes incubation time the signal is measured in a PerkinElmer Envision HTS Multilabel Reader using the AlphaScreen specs from PerkinElmer.
IC50 values are calculated and analyzed with Boehringer Ingelheim's MEGALAB IC50 application using a 4 parametric logistic model.

KRAS G12C Ba/F3 cells = KRAS G12C Ba/F3 cells (Homo sapiens, UniProt P01116, G12C, cells depend on it); assay: Ba/F3 proliferation assay, KRAS G12C; format: cell-based; details: 72 h, AlamarBlue, read-out: KRAS G12C Ba/F3 IC50
Protocol: as §1, §2

KRAS G12D Ba/F3 cells = KRAS G12D Ba/F3 cells (Homo sapiens, UniProt P01116, G12D, cells depend on it); assay: Ba/F3 proliferation assay, KRAS G12D; format: cell-based; details: 72 h, AlamarBlue, read-out: KRAS G12D Ba/F3 IC50
Protocol: as §1, §2

SK-CO-1 cells = assay: SK-CO-1 CTG proliferation assay (120 h); format: cell-based; details: Homo sapiens, CRC, G12V
Protocol: SK-CO-1 cells (ATCC HTB-39) are dispensed into 384-well plates, flat and clear bottom (Greiner, PNr. 781091) at a density of 500 cells per well in 60 μL EMEM (Sigma M5650)+10% Fetal Calf Serum (HyClone, PNr.: SH30084.03) and incubated at 37° C. in a CO2 incubator overnight. The next day, compounds (10 mM stock in DMSO) are added with the ECHO acoustic liquid handler system (Beckman Coulter), including DMSO controls. Plates are incubated for 120 h, and cell viability is measured using CellTiter-Glo luminescent cell viability reagent (Promega product code G7570). Viability (stated as percent of control) is defined as relative luminescence units RLU of each well divided by the RLU of cells in DMSO controls. IC50 values are determined from viability measurements by non-linear regression using a four-parameter model.

Chain of KRAS G12C Ba/F3 cells (P01116 whole entry G12C): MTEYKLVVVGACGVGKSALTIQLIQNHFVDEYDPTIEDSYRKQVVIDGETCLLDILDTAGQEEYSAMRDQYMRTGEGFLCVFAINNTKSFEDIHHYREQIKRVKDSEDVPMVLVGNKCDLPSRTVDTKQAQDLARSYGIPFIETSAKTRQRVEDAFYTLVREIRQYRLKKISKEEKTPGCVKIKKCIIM
Chain of KRAS G12V Ba/F3 cells (P01116 whole entry G12V, canonical isoform): as the sequence (P01116 whole entry G12C) above, with C12V counted along it
Chain of KRAS G12D Ba/F3 cells (P01116 whole entry G12D): as the sequence (P01116 whole entry G12C) above, with C12D counted along it
T1 sequence (P01116 1-169 isoform P01116-2 G12C/C51S/C80L/C118S): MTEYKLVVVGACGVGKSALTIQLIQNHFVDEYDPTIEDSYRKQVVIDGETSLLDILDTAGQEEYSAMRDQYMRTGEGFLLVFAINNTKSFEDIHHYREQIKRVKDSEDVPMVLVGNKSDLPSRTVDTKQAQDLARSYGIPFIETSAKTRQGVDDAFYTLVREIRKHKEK

| Structure (SMILES) | HLM QH [1] | GI50 (KRAS G12V Ba/F3 cells) | IC50 (KRAS (G12C) and SOS1) | GI50 (KRAS G12C Ba/F3 cells) | GI50 (KRAS G12D Ba/F3 cells) | IC50 (SK-CO-1 cells) |
| --- | --- | --- | --- | --- | --- | --- |
| C[C@H]1CN(C)CCN1c1nccc(-c2noc([C@@]3(C)CCCc4sc(N)c(C#N)c43)n2)n1 [Example V-7] | 95% | 1680 nM | 22 nM | 1240 nM | 1090 nM |  |
| C[C@H]1CNCCN1c1nccc(-c2noc([C@@]3(C)CCCc4sc(N)c(C#N)c43)n2)n1 [Example V-4] | 83% | 1080 nM | 23 nM | 831 nM | 823 nM |  |
| C[C@H]1CN(C)CCN1c1cccc(-c2noc([C@@]3(C)CCCc4sc(N)c(C#N)c43)n2)n1 [Example V-1] | 93% | 1440 nM | 31 nM | 1270 nM | 961 nM | 4800 nM |
| C[C@H](Oc1ccnc(-c2noc([C@@]3(C)CCCc4sc(N)c(C#N)c43)n2)n1)[C@@H]1CCCN1C [Example V-11] | 81% |  |  |  |  | 737 nM |
| C[C@H]1CN(C)CCN1c1nccc(-c2cc([C@@]3(C)CCCc4sc(N)c(C#N)c43)on2)n1 [Example V-27] | >88% | 1690 nM | 24 nM | 1430 nM | 525 nM |  |

The remaining lines, values ahead:

| HLM QH [1] | GI50 (KRAS G12V Ba/F3 cells) | IC50 (KRAS (G12C) and SOS1) | GI50 (KRAS G12C Ba/F3 cells) | GI50 (KRAS G12D Ba/F3 cells) | IC50 (SK-CO-1 cells) | Structure (SMILES) |
| --- | --- | --- | --- | --- | --- | --- |
| 77% | 1070 nM | 15 nM | 811 nM | 801 nM |  | C[C@H]1CNCCCN1c1nccc(-c2noc([C@@]3(C)CCCc4sc(N)c(C#N)c43)n2)n1 [Example V-6] |
| 87% | 361 nM | 7 nM | 291 nM | 214 nM |  | C[C@H](Oc1nccc(-c2noc([C@@]3(C)CCCc4sc(N)c(C#N)c43)n2)n1)[C@@H]1CCCN1C [Example V-10] |
| 94% | 640 nM | 8 nM | 493 nM | 293 nM |  | C[C@H]1CN(C)CCCN1c1nccc(-c2noc([C@@]3(C)CCCc4sc(N)c(C#N)c43)n2)n1 [Example V-5] |
| >88% | 76 nM | 5 nM | 64 nM | 51 nM |  | CC(C)N1CCCN(c2nccc(-c3noc([C@@]4(C)CCCc5sc(N)c(C#N)c54)n3)n2)[C@@H](C)C1 [Example V-9] |
| >95% | 917 nM | 6 nM | 371 nM | 256 nM |  | COCCCN1CCCN(c2nccc(-c3noc([C@@]4(C)CCCc5sc(N)c(C#N)c54)n3)n2)[C@@H](C)C1 [Example V-2] |
| >88% | 443 nM | 9 nM | 481 nM | 390 nM | 6650 nM | C[C@H](Oc1cccc(-c2noc([C@@]3(C)CCCc4sc(N)c(C#N)c43)n2)n1)[C@@H]1CCCN1C [Example V-8] |
